Results reported in ChEMBL document CHEMBL1201862, “PubChem BioAssay data set” (2004).
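Method: 48-hour compound exposure of cells in 96-well plates, five concentrations, linear interpolation of endpoints. GI50 = concentration required for 50% inhibition of growth.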 Calls of active or inactive are those of the source. Rule as the data show it: active = GI50 up to about 1.1 µM and inactive = higher.

Legend:
Test in all cases: NCI anticancer screen, dose series, 48 h
[1] = tested on: MDA-N
[2] = tested on: T47D
[3] = tested on: MCF7

With CC1CCC(O)(C(C)(C(=O)O)c2ccccc2)CC1 (stereo unspecified) the GI50 [1] was > 100 µM (inactive) and the GI50 [2] was > 100 µM (inactive).

For C[C@H]1[C@H](C)N(Cc2ccccc2)P(=O)(C(O)/C=C/c2ccccc2)N1Cc1ccccc1 (stereo partly specified), the GI50 [3] was 8.3 µM (inactive), the GI50 [1] was 5.55 µM (inactive) and the GI50 [2] was 6.27 µM (inactive).

For CC(C)(C)OC(=O)NCCCCC(NC(=O)OCc1ccccc1)C(N)=O (stereo unspecified), the GI50 [3] was > 100 µM (inactive), the GI50 [1] was > 100 µM (inactive) and the GI50 [2] was > 100 µM (inactive).

For COC(=O)c1ccccc1C1CN=NC12Cc1c(ccc3c1CCC3)C2=O (stereo unspecified), the GI50 [3] was 50.9 µM (inactive), the GI50 [1] was 20.1 µM (inactive) and the GI50 [2] was 54 µM (inactive).

For O=[N+]([O-])c1ccc2[nH]c(-c3ccc(Cl)cc3)nc2c1, the GI50 [3] was 18.7 µM (inactive), the GI50 [1] was 24 µM (inactive) and the GI50 [2] was 24.6 µM (inactive).

Cn1c(SCc2ccc(F)cc2)nnc1C12CC3CC(CC(C3)C1)C2 was tested, and the GI50 [1] was 38.5 µM (inactive) and the GI50 [2] was 56.9 µM (inactive).

CC(=O)/C(=C/NC(=S)Nc1ccccc1)C(=O)Nc1ccccc1C was tested, and the GI50 [3] was > 100 µM (inactive), the GI50 [1] was > 100 µM (inactive) and the GI50 [2] was 52.4 µM (inactive).

In the case of CCOC(=O)c1c(N2CCCC2)[nH]c(=O)c(C(c2ccc(N(C)C)cc2)c2c(O)c(C(=O)OCC)c(N3CCCC3)[nH]c2=O)c1O, the GI50 [3] is reported as > 100 µM (inactive), the GI50 [1] is reported as > 100 µM (inactive) and the GI50 [2] is reported as > 100 µM (inactive).

In the case of C=C(C)[C@@]1(O)O[C@H]2C[C@@]3(C)OC(=CC3=O)/C(C)=C\[C@@H]3OC(=O)[C@@]1(C)[C@H]32, the GI50 [3] is reported as 11.6 µM (inactive) and the GI50 [2] is reported as 21.3 µM (inactive).

With CC1CCCN(CC(O)CN2CCCc3ccccc32)C1 (stereo unspecified) the GI50 [3] was > 100 µM (inactive), the GI50 [1] was > 100 µM (inactive) and the GI50 [2] was > 100 µM (inactive).

In the case of COc1cc2cc(C(=O)N3CC(CCl)c4ccc([N+](C)(C)Cc5ccccc5[N+](=O)[O-])cc43)[nH]c2c(OC)c1OC (stereo unspecified), the GI50 [3] is reported as 0.621 µM (active), the GI50 [1] is reported as 2.26 µM (inactive) and the GI50 [2] is reported as 2.31 µM (inactive).

CC1OC(O[C@@H]2OC=C(C=O)[C@@]3(O)CC[C@H](C)[C@@H]23)C(O)C(O)C1O (stereo partly specified) was tested, and the GI50 [3] was > 100 µM (inactive), the GI50 [1] was > 100 µM (inactive) and the GI50 [2] was > 100 µM (inactive).

With NNc1nnc(-c2nnc(NN)o2)o1 the GI50 [3] was > 10 µM (inactive), the GI50 [1] was > 10 µM (inactive) and the GI50 [2] was > 10 µM (inactive).

O=c1[nH]cnc2c(C3OC(CO)C(O)C3O)c[nH]c12 (stereo unspecified) was tested, and the GI50 [3] was > 100 µM (inactive), the GI50 [1] was > 100 µM (inactive) and the GI50 [2] was > 100 µM (inactive).

For OCC1C(OCc2ccccc2)C(OCc2ccccc2)C(OCc2ccccc2)CN1Cc1ccccc1 (stereo unspecified), the GI50 [3] was 14.2 µM (inactive), the GI50 [1] was 35.4 µM (inactive) and the GI50 [2] was 22.6 µM (inactive).

For CC(C)=CC(=O)c1[nH]c2ccccc2c1CC(=O)NCCc1c[nH]cn1, the GI50 [3] was > 100 µM (inactive), the GI50 [1] was > 100 µM (inactive) and the GI50 [2] was > 100 µM (inactive).

For CC1(C)C/C(=N/O)c2c(nc3ccc4ccccc4c3c2-c2ccc(Cl)cc2)C1, the GI50 [3] was 11.2 µM (inactive), the GI50 [1] was 25.1 µM (inactive) and the GI50 [2] was 12.1 µM (inactive).

In the case of CC1CCCC(C(O)CC2CC(=O)NC(=O)C2)C1O (stereo unspecified), the GI50 [3] is reported as > 100 µM (inactive), the GI50 [1] is reported as > 100 µM (inactive) and the GI50 [2] is reported as > 100 µM (inactive).

With CN(C)CCCNc1ncnc2[nH]cnc12 the GI50 [3] was > 100 µM (inactive), the GI50 [1] was > 100 µM (inactive) and the GI50 [2] was > 100 µM (inactive).

With COc1ccc(/N=N/c2ccc3oc(=O)c(C(=O)Nc4ccc(OC)cc4)cc3c2)cc1 the GI50 [3] was 16.1 µM (inactive), the GI50 [1] was 25.5 µM (inactive) and the GI50 [2] was 4.23 µM (inactive).

With CN1C2CCC1CC(CC(=O)NC(c1ccc(F)cc1)c1ccc(F)cc1)C2 (stereo unspecified) the GI50 [1] was 41.9 µM (inactive) and the GI50 [2] was > 100 µM (inactive).

With CC(C(=O)O)C(C)(O)C(=O)O (stereo unspecified) the GI50 [3] was > 100 µM (inactive), the GI50 [1] was > 100 µM (inactive) and the GI50 [2] was > 100 µM (inactive).

In the case of O=C(Nc1sccc1S(=O)(=O)c1ccc(Cl)cc1)C(F)(F)F, the GI50 [3] is reported as 28.8 µM (inactive), the GI50 [1] is reported as 8.28 µM (inactive) and the GI50 [2] is reported as 6.43 µM (inactive).

With Cn1c(=O)n2n(c1=O)C([S+]([O-])c1ccccc1)C2 (stereo unspecified) the GI50 [3] was > 100 µM (inactive) and the GI50 [1] was > 100 µM (inactive).

With COc1ccc2nc3ccc(OC)cc3c([S+]([O-])Cc3ccc([N+](=O)[O-])cc3)c2c1 (stereo unspecified) the GI50 [3] was 1.92 µM (inactive), the GI50 [1] was 14.2 µM (inactive) and the GI50 [2] was 1.95 µM (inactive).

Sc1ncc2[nH]nnc2n1 was tested, and the GI50 [3] was > 100 µM (inactive).

For Cc1ccccc1C(=O)N1CCc2c([nH]c3ccccc23)C1, the GI50 [3] was 21 µM (inactive), the GI50 [1] was 18.9 µM (inactive) and the GI50 [2] was 21.9 µM (inactive).

With COc1ccc(CCCCNCc2cccc(CNCCCCc3ccc(OC)cc3)c2)cc1 the GI50 [3] was 1.54 µM (inactive), the GI50 [1] was 2 µM (inactive) and the GI50 [2] was 2.06 µM (inactive).

CC(=O)OCC1OC(n2ncc(=O)[nH]c2=O)C(OC(C)=O)C1OC(C)=O (stereo unspecified) was tested, and the GI50 [3] was 15.6 µM (inactive), the GI50 [1] was 32.3 µM (inactive) and the GI50 [2] was > 100 µM (inactive).

Cn1c(=O)c2c(nc(NCCCCl)n2CC(=O)NCCCCl)n(C)c1=O was tested, and the GI50 [1] was > 100 µM (inactive) and the GI50 [2] was > 100 µM (inactive).

With CCOP(=O)(OCC)/C(C#N)=C/c1coc2cc(C)cc(C)c2c1=O the GI50 [3] was > 100 µM (inactive) and the GI50 [1] was > 100 µM (inactive).

With C=CCOn1c(C=C)nc2c(C)cccc21 the GI50 [3] was 2.92 µM (inactive), the GI50 [1] was 3.13 µM (inactive) and the GI50 [2] was 1.99 µM (inactive).

O=C(Nc1nccs1)NS(=O)(=O)n1cnc2ccccc21 was tested, and the GI50 [3] was > 100 µM (inactive) and the GI50 [2] was > 100 µM (inactive).

In the case of Cc1ccc2c(O)cc(-c3ccc4ccccc4c3)nc2n1, the GI50 [3] is reported as 2.28 µM (inactive) and the GI50 [2] is reported as 7 µM (inactive).

[O-][n+]1ccc(NO)c2ccccc21 was tested, and the GI50 [3] was 0.883 µM (active), the GI50 [1] was 4.72 µM (inactive) and the GI50 [2] was 1.67 µM (inactive).

With CC1OC(OC2C(OC(=O)[C@]34CCC(C)(C)C[C@H]3C3=CC[C@@H]5[C@@]6(C)CC[C@H](OC7OC(C(=O)O)C(O)C(O)C7O)C(C)(C)[C@@H]6CC[C@@]5(C)[C@]3(C)C[C@H]4O)OCC(O)C2O)C(O)C(O)C1OC1OCC(OC2OCC(O)C(O)C2O)C(O)C1O (stereo partly specified) the GI50 [3] was 5.07 µM (inactive) and the GI50 [2] was 7.16 µM (inactive).

For O=C(O)CC1NC(/C(=C/c2ccccc2)NC(=O)c2ccccc2)OC1=O (stereo unspecified), the GI50 [3] was 47.2 µM (inactive), the GI50 [1] was 30.1 µM (inactive) and the GI50 [2] was > 100 µM (inactive).

With O/N=C(\CC(O)(C(F)(F)F)C(F)(F)F)c1cccs1 the GI50 [3] was > 10 µM (inactive), the GI50 [1] was > 10 µM (inactive) and the GI50 [2] was > 10 µM (inactive).

In the case of O=C(O)c1ccccc1C1c2ccccc2Oc2ccccc21, the GI50 [1] is reported as 58.6 µM (inactive) and the GI50 [2] is reported as 71.9 µM (inactive).

COC(=O)C(/C(=N/N)C(=O)Nc1ccc(C)c(C)c1)c1nc2ccc(Cl)cc2nc1O (stereo unspecified) was tested, and the GI50 [3] was > 100 µM (inactive) and the GI50 [2] was > 100 µM (inactive).

In the case of CN1CCN(CCCNN)CC1, the GI50 [3] is reported as > 100 µM (inactive), the GI50 [1] is reported as > 100 µM (inactive) and the GI50 [2] is reported as > 100 µM (inactive).

With COC(=O)c1cc2c(n1S(=O)(=O)c1ccc(C)cc1)C(=O)C(=O)c1[nH]cc(C(=O)OCc3ccccc3)c1-2 the GI50 [3] was 0.0668 µM (active), the GI50 [1] was < 0.01 µM (active) and the GI50 [2] was 0.216 µM (active).

For CCc1cccc2c3c([nH]c12)-c1ccccc1NC(=O)C3, the GI50 [3] was 18.3 µM (inactive) and the GI50 [2] was 3.66 µM (inactive).

O=C1CSC(c2ccc(Cl)cc2)N1c1ccc(-c2ccc(-n3c(-c4ccccc4)nc4ccccc4c3=O)cc2)cc1 (stereo unspecified) was tested, and the GI50 [3] was 30.7 µM (inactive), the GI50 [1] was 32.1 µM (inactive) and the GI50 [2] was 13.8 µM (inactive).

With COC(=O)C1=C(C(=O)OC)C(OO)(c2ccccc2)OC1=O (stereo unspecified) the GI50 [3] was 52.1 µM (inactive), the GI50 [1] was 91.4 µM (inactive) and the GI50 [2] was > 100 µM (inactive).

COc1ccc(C2(O)C(S(=O)(=O)c3ccc(C)cc3)=Cc3ccc(OC)cc32)cc1 (stereo unspecified) was tested, and the GI50 [3] was 35 µM (inactive), the GI50 [1] was > 100 µM (inactive) and the GI50 [2] was 69.5 µM (inactive).

With Cn1c(-c2cccs2)cc(-c2ccccc2)c1-c1cccs1 the GI50 [3] was 3.58 µM (inactive), the GI50 [1] was > 100 µM (inactive) and the GI50 [2] was > 100 µM (inactive).
